Assay results as given in ChEMBL document CHEMBL3227967, “Quantitative structure-activity relationships in 1-aryl-2-(alkylamino)ethanol antimalarials” (J Med Chem, 1979).

These compounds were tested on Plasmodium berghei (assay: Antimalarial activity against Plasmodium berghei).
Type: functional

| SMILES | log(1/C) |
| --- | --- |
| CCCCN(CCCC)CC(O)c1nc(-c2ccc(Cl)cc2)nc2ccccc12 (configuration not stated) | 2.85 |
| C=C[C@H]1CN2CC[C@H]1C[C@H]2[C@H](O)c1ccnc2ccc(OC)cc12.O=C(O)CCC(=O)O | 2.28 |
| OC(CC1CCCCN1)c1cc2cc(Cl)ccc2c2cc(Cl)ccc12 (configuration not stated) | 4.12 |
| CCCCN(CCCC)CC(O)c1ccc(Cl)c2cc3cccc(Cl)c3cc12 (configuration not stated) | 3.39 |
| CCCCN(CCCC)CC(O)c1cc2ccc(C(F)(F)F)cc2c2cc(C(F)(F)F)ccc12 (configuration not stated) | 4.1 |
| CCCCN(CCCC)CC(O)c1cc2ccc(Cl)cc2c2cc(OC)ccc12 (configuration not stated) | 2.49 |
| CCCCNC(C)(C)CC(O)c1cc(C(F)(F)F)nc2c(C(F)(F)F)cccc12 (configuration not stated) | 3.27 |
| CCCCN(CCCC)CC(O)c1cc(-c2ccc(OC)cc2)nc2cc(OC)c(Cl)cc12 (configuration not stated) | 2.71 |
| CCCCN(CCCC)CC(O)c1cc(-c2ccc(Cl)cc2)nc2ccc(Cl)cc12 (configuration not stated) | 3.8 |
| CCCCN(CCCC)CC(O)c1cc(-c2ccc(Cl)cc2)nc2cc(OC)c(Cl)cc12 (configuration not stated) | 2.76 |
| CCCCCCCN(CCCCCCC)CC(O)c1cc2c(Cl)cc(Cl)cc2c2sccc12 (configuration not stated) | 2.89 |
| CCCCN(CCCC)CC(O)c1cc(-c2ccc(I)cc2)nc2ccc(I)cc12 (configuration not stated) | 4.22 |
| CCCCN(CCCC)CC(O)c1cc2c(Br)cc(Br)cc2c2cc(Br)ccc12 (configuration not stated) | 4.19 |
| Cc1ccc(-c2cc(C(O)CC3CCCCN3)c3cc(C)cc(C)c3n2)cc1 (configuration not stated) | 3.11 |
| C=C[C@H]1CN2CC[C@H]1C[C@H]2[C@H](O)c1ccnc2ccc(OC)cc12 [QUININE] | 2.06 |
| CCN(CC)CC(O)c1cc(-c2ccc(Cl)c(Cl)c2)nc(-c2ccc(Cl)c(Cl)c2)c1 (configuration not stated) | 3.04 |
| OC(CC1CCCCN1)c1c2c(nc3c(Cl)cc(Cl)cc13)-c1ccc(Cl)cc1CC2 (configuration not stated) | 3.69 |
| CCCCN(CCCC)CC(O)c1cc(Cl)cc2c1-c1ccc(Cl)cc1C2=O (configuration not stated) | 3.39 |
| CCCCN(CCCC)CC(O)c1cc(-c2ccc(Cl)cc2)nc(-c2ccc(Cl)c(Cl)c2)c1 (configuration not stated) | 3 |
| CCCCCCN(CCCCCC)CC(O)c1cc(-c2ccc(OC)cc2)nc2cc(Cl)c(Cl)cc12 (configuration not stated) | 3.35 |
| CCCCN(CCCC)CC(O)c1cc(C(C)(C)C)nc2ccc(Cl)cc12 (configuration not stated) | 2.91 |
| CCCCCCCN(CCCCCCC)CCC(O)c1cc2ccc(C(F)(F)F)cc2c2cc(C(F)(F)F)ccc12 (configuration not stated) | 3.2 |

| SMILES | log(1/C) |
| --- | --- |
| CCCN(CCC)CC(O)c1cc2c(Cl)cc(Cl)cc2c2cc(Cl)ccc12 (configuration not stated) | 4.19 |
| Cc1ccc2nc(-c3ccccc3)cc(C(O)CC3CCCCN3)c2c1 (configuration not stated) | 2.47 |
| COc1ccc(-c2cc(C(O)CC3CCCCN3)c3cccc(C(F)(F)F)c3n2)cc1 (configuration not stated) | 3.88 |
| CCCCCCCN(CCCCCCC)CC(O)c1cc2c(Br)cccc2c2cc(Br)ccc12 (configuration not stated) | 3.33 |
| CN1CCCCC1CC(O)c1cc2ccccc2c2cc(Br)ccc12 (configuration not stated) | 3.44 |
| CCCCN(CCCC)CC(O)c1cc(-c2ccc(F)cc2)nc2cc(F)ccc12 (configuration not stated) | 2.52 |
| CCCCN(CCCC)CC(O)c1cc(C(=O)c2cc(C(F)(F)F)cc(C(F)(F)F)c2)nc2c(Cl)cc(Cl)cc12 (configuration not stated) | 4.64 |
| CCCCN(CCCC)CC(O)c1cc2c(Cl)cc(Cl)cc2c2cc(Cl)sc12 (configuration not stated) | 3.53 |
| CCCCN(CCCC)CC(O)c1cc2cc(Cl)c(Cl)cc2c2c(Cl)cc(Cl)cc12 (configuration not stated) | 4.18 |
| Cc1cccc2c(C(O)CC3CCCCN3)cc(-c3ccc(Cl)cc3)nc12 (configuration not stated) | 3.67 |
| CCCCN(CCCC)CC(O)c1cc(Oc2cc(Cl)cc(Cl)c2)cc2c(Cl)cc(Cl)cc12 (configuration not stated) | 2.9 |
| CCCCN(CCCC)CC(O)c1cc2cc(Br)c(Br)cc2c2cc(Br)ccc12 (configuration not stated) | 3.97 |
| OC(CCNC1CCCCC1)c1cc2ccc(C(F)(F)F)cc2c2cc(C(F)(F)F)ccc12 (configuration not stated) | 4.53 |
| CCCN(CCC)CC(O)c1cc2ccc(C(F)(F)F)cc2c2cc(Cl)c(Cl)cc12 (configuration not stated) | 4.3 |
| CCCCCCNCC(O)c1cc2ccc(C(F)(F)F)cc2c2cc(C(F)(F)F)ccc12 (configuration not stated) | 3.78 |
| CCCCN(CCCC)CC(O)c1cc(-c2ccc(Cl)cc2)nc(-c2ccc(Cl)cc2)c1.O=C(O)CCC(=O)O (configuration not stated) | 3.71 |
| CCCCN(CCCC)CC(O)c1cc(Cl)c2nc(-c3ccccc3)ccc2c1 (configuration not stated) | 2.51 |
| CCN(CC)CC(O)c1cc(-c2ccc(Cl)cc2)nc(-c2ccc(Cl)cc2)c1 (configuration not stated) | 3.19 |
| CCCCN(CCCC)CC(O)c1c(C)c(-c2ccc(Cl)cc2Cl)nc2c(Cl)cc(Cl)cc12 (configuration not stated) | 3.15 |
| CCCCN(CCCC)CC(O)c1cc2c(Cl)c(Cl)ccc2c2cc(Cl)c(Cl)cc12 (configuration not stated) | 3.34 |
| CCCCCCCN(CCCCCCC)CC(O)c1c(OC)c2cc(Br)ccc2c2ccc(Br)cc12 (configuration not stated) | 3.35 |
| CCCCN(CCCC)CC(O)c1cc(-c2ccc(Cl)cc2)nc2c(C(F)(F)F)cc(OC)cc12 (configuration not stated) | 3.93 |

| SMILES | log(1/C) |
| --- | --- |
| OC(CC1CCCCN1)c1cc(C(F)(F)F)nc2c(F)cccc12 (configuration not stated) | 2.36 |
| CCCCN(CCCC)CC(O)c1cc2c(Cl)cc(Cl)cc2c2sccc12 (configuration not stated) | 3.28 |
| CCCCN(CCCC)CC(O)c1cc2c(Cl)cccc2c2ccccc12 (configuration not stated) | 2.65 |
| CCCCN(CCC)CC(O)c1ccc2cc3ccccc3cc2c1 (configuration not stated) | 2.49 |
| CCCCNCC(O)c1cc(-c2ccc(Cl)cc2)nc2cc(Cl)c(OC)cc12 (configuration not stated) | 3.88 |
| OC(CCC1CCCCN1)c1cc(C(F)(F)F)nc2c(C(F)(F)F)cccc12 (configuration not stated) | 3.36 |
| CCCCN(CCCC)CC(O)c1cc2cc(C(F)(F)F)ccc2c2ccccc12 (configuration not stated) | 3.79 |
| CCCCCCCN(CCCCCCC)CC(O)c1cc2ccc(Br)cc2c2cc(Br)ccc12 (configuration not stated) | 3.45 |
| CCCCN(CCCC)CC(O)c1cc(-c2ccc(Cl)cc2)cc2ccc(OC)cc12 (configuration not stated) | 3.9 |
| CCCCCCN(CCCCCC)CC(O)c1cc2ccc(C(F)(F)F)cc2c2ccsc12 (configuration not stated) | 2.49 |
| CCCCCCCCN(CCCCCCCC)CCC(O)c1cc2c(O)cccc2c2ccccc12 (configuration not stated) | 2.65 |
| CCCCN(CCCC)CC(O)c1cc(C23CC4CC(CC(C4)C2)C3)nc2c(C(F)(F)F)cccc12 (configuration not stated) | 3.59 |
| CC(C)NCC(O)c1cc2ccc(C(F)(F)F)cc2c2cc(C(F)(F)F)ccc12 (configuration not stated) | 3.8 |
| CCN(CC)CC(O)c1cc(-c2ccc(C)cc2)nc2c(C)cc(C)cc12 (configuration not stated) | 2.8 |
| CCCCCCCCCN(CCCCCCCCC)CC(O)c1c2ccccc2cc2ccccc12 (configuration not stated) | 3.24 |
| CCCCN(CCCC)CC(O)c1cc(C(=O)c2ccc(C(F)(F)F)cc2)nc2c(Cl)cc(Cl)cc12 (configuration not stated) | 4.86 |
| OC(C[N+]12CCC(CC1)CC2)c1cc(-c2ccc(Cl)cc2)nc(-c2ccc(Cl)cc2)c1 (configuration not stated) | 3.21 |
| OC(CC1CCCCN1)c1cc(C(F)(F)F)nc2ccc(Cl)cc12 (configuration not stated) | 2.53 |
| CCCCN(CCCC)CC(O)c1cc(-c2ccc(C(F)(F)F)cc2)nc2c(Cl)cc(Cl)cc12 (configuration not stated) | 4.04 |
| OC(CC1CCCCN1)c1cc(C(F)(F)F)nc2ccc(C(F)(F)F)cc12 (configuration not stated) | 3.65 |
| CCCCCCCN(CCCCCCC)CC(O)c1cc(-c2ccc(Cl)cc2)nc2c(C(F)(F)F)cccc12 (configuration not stated) | 3.13 |
| CCCCCCCN(CCCCCCC)CC(O)c1cc2ccc(Cl)cc2c2cc(OC)ccc12 (configuration not stated) | 2.98 |

| SMILES | log(1/C) |
| --- | --- |
| CCCCNCC(O)c1cc(-c2ccc(C(F)(F)F)cc2)nc(C(F)(F)F)c1 (configuration not stated) | 4.08 |
| OC(CC1CCCCN1)c1cc2cc(Cl)ccc2c2cc(C(F)(F)F)ccc12 (configuration not stated) | 4.07 |
| CCCCCCCN(CCCCCCC)CC(O)c1cc2c(Cl)cccc2c2ccccc12 (configuration not stated) | 2.56 |
| OC(CC1CCCCN1)c1ccnc2cc(Cl)ccc12 (configuration not stated) | 2.14 |
| CCCCCCCN(CCCCCCC)CC(O)c1cc(Cl)cc2ccc(-c3ccc(Cl)cc3)nc12 (configuration not stated) | 2.34 |
| CC(C)NCCC(O)c1cc2ccc(C(F)(F)F)cc2c2cc(C(F)(F)F)ccc12 (configuration not stated) | 3.89 |
| CCCCN(CCCC)CC(O)c1cc2ccc(I)cc2c2cc(C(F)(F)F)ccc12 (configuration not stated) | 3.72 |
| CCC(C)NCC(O)c1cc(-c2ccc(C(F)(F)F)cc2)nc(-c2ccc(C(F)(F)F)cc2)c1 (configuration not stated) | 4.15 |
| CCCCN(CCCC)CC(O)c1cc(-c2ccc(Cl)cc2)nc2cc(C(F)(F)F)ccc12 (configuration not stated) | 4.14 |
| CCCCN(CCCC)CC(O)c1cc2ccc(F)cc2c2ccccc12 (configuration not stated) | 2.43 |
| CCCCN(CCCC)CC(O)c1cccc2ccc3cccc(Cl)c3c12 (configuration not stated) | 2.3 |
| CCCCN(CCCC)CC(O)c1cc(OCC)nc2ccccc12 (configuration not stated) | 2.24 |
| Cc1cccc2c(C(O)CC3CCCCN3)cc(-c3ccc(F)cc3)nc12 (configuration not stated) | 3.72 |
| OC(CC1CCCCN1)c1cc2ccccc2c2c(C(F)(F)F)cccc12 (configuration not stated) | 3.73 |
| CCOc1ccc2nccc(C(O)C[N+]34CCC(CC3)C(CC)C4)c2c1 (configuration not stated) | 1.97 |
| CCOCCN(CCOCC)CC(O)c1cc(-c2ccc(Cl)c(Cl)c2)nc2ccc(OC)cc12 (configuration not stated) | 2.83 |
| CCCCN(CCCC)CC(O)c1c(Cl)cc2ccc(-c3ccc(Cl)cc3)nc2c1Cl (configuration not stated) | 3.02 |
| OC(CNC1CCCCC1)c1cc2ccccc2c2cc(OC(F)(F)F)ccc12 (configuration not stated) | 3.34 |
| CCCCN(CCCC)CC(O)c1cc2c(Br)cccc2c2cc(Br)ccc12 (configuration not stated) | 2.9 |
| Cc1ccc(Oc2cc(C(O)CC3CCCCN3)c3cc(C)ccc3n2)cc1 (configuration not stated) | 2.35 |
| CCCCCCN(CCCCCC)CC(O)c1cccc2ccc3cccc(Br)c3c12 (configuration not stated) | 2.39 |
